According to ChEMBL document CHEMBL4651402, “Screening of ~5500 FDA-approved drugs and clinical candidates for anti-SARS-CoV-2 activity” (2021):

Test system: SARS-CoV-2
Test: microbe, parasite or virus in culture
Settings: Severe acute respiratory syndrome coronavirus 2, Vero C1008, 48 h

SMILES: CC(=O)O[C@H]1C[C@@]2(C)[C@@H](C[C@@H](O)[C@H]3[C@@]4(C)CC[C@@H](O)[C@@H](C)[C@@H]4CC[C@@]32C)/C1=C(\CCC=C(C)C)C(=O)O [FUSIDIC ACID]
- IC50: > 20 µM
- IC50 (read-out: pIC50 (converted)): > 20 µM

SMILES: CN(C)C(=O)Oc1cc(OC(=O)N(C)C)cc(C(O)CNC(C)(C)C)c1 (stereo not drawn) [BAMBUTEROL]
- IC50: > 20 µM
- IC50 (read-out: pIC50 (converted)): > 20 µM

SMILES: COc1ccc(/C=C\c2cc(OC)c(OC)c(OC)c2)cc1O [COMBRETASTATIN A4]
- IC50: > 20 µM
- IC50 (read-out: pIC50 (converted)): > 20 µM

SMILES: CN(C)[C@@H]1C(O)=C(C(N)=O)C(=O)[C@@]2(O)C(O)=C3C(=O)c4c(O)ccc(Cl)c4[C@@H](O)[C@H]3C[C@@H]12 [DEMECLOCYCLINE]
- IC50: > 20 µM
- IC50 (read-out: pIC50 (converted)): > 20 µM

SMILES: O=P(O)(O)OC(CO)CO [GLYCERYLPHOSPHATE]
- IC50: > 20 µM
- IC50 (read-out: pIC50 (converted)): > 20 µM

SMILES: O=C1CC[C@@H](C(=O)O)N1 [PIDOLIC ACID]
- IC50: > 20 µM
- IC50 (read-out: pIC50 (converted)): > 20 µM

SMILES: COc1ccc(Cl)cc1C(=O)NCCc1ccc(S(=O)(=O)NC(=O)NC2CCCCC2)cc1 [GLYBURIDE]
- IC50: > 20 µM
- IC50 (read-out: pIC50 (converted)): > 20 µM

SMILES: CC(C)c1cccc(C(C)C)c1O [PROPOFOL]
- IC50: > 20 µM
- IC50 (read-out: pIC50 (converted)): > 20 µM

SMILES: O=C(C[S+]([O-])Cc1ccco1)NC/C=C\COc1cc(CN2CCCCC2)ccn1 (stereo not drawn) [LAFUTIDINE]
- IC50: > 20 µM
- IC50 (read-out: pIC50 (converted)): > 20 µM

SMILES: CNC1(c2ccccc2Cl)CCCCC1=O (stereo not drawn) [KETAMINE]
- IC50: > 20 µM
- IC50 (read-out: pIC50 (converted)): > 20 µM

SMILES: OC(CCN1CCCCC1)(c1ccccc1)c1ccccc1 [PRIDINOL]
- IC50: > 20 µM
- IC50 (read-out: pIC50 (converted)): > 20 µM

SMILES: CNCCC(Oc1ccccc1OC)c1ccccc1 (stereo not drawn) [NISOXETINE]
- IC50: > 20 µM
- IC50 (read-out: pIC50 (converted)): > 20 µM

SMILES: CN1C(=O)CC(C)(c2ccccc2)C1=O (stereo not drawn) [METHSUXIMIDE]
- IC50: > 20 µM
- IC50 (read-out: pIC50 (converted)): > 20 µM

SMILES: Cc1cc(-n2nc3ccc(Cl)cc3n2)c(O)c(C(C)(C)C)c1 [BUMETRIZOLE]
- IC50: > 20 µM
- IC50 (read-out: pIC50 (converted)): > 20 µM

SMILES: N#CC(CCN1CCC(C(=O)O)(c2ccccc2)CC1)(c1ccccc1)c1ccccc1 [DIFENOXIN]
- IC50: > 20 µM
- IC50 (read-out: pIC50 (converted)): > 20 µM

SMILES: COC1=CC(=O)O[C@@H](/C=C/c2ccccc2)C1 (racemic) [KAVAIN]
- IC50: > 20 µM
- IC50 (read-out: pIC50 (converted)): > 20 µM

SMILES: CN1CCCCC1CCN1c2ccccc2Sc2ccc([S+](C)[O-])cc21 (stereo not drawn) [MESORIDAZINE]
- IC50: > 20 µM
- IC50 (read-out: pIC50 (converted)): > 20 µM

SMILES: O=[N+]([O-])c1c(Cl)cccc1-c1c[nH]cc1Cl [PYRROLNITRIN]
- IC50: > 20 µM
- IC50 (read-out: pIC50 (converted)): > 20 µM

SMILES: COc1ccc(C(=O)NCc2cccnc2)cc1C(=O)NCc1cccnc1 [PICOTAMIDE]
- IC50: > 20 µM
- IC50 (read-out: pIC50 (converted)): > 20 µM

SMILES: C[C@@H](c1ccc2nccn2c1)n1nnc2ncc(-c3cnn(C)c3)nc21 [SAVOLITINIB]
- IC50: > 20 µM
- IC50 (read-out: pIC50 (converted)): > 20 µM

SMILES: CCCCCCCCCCCCCCCCCCCCCC(=O)O [BEHENIC ACID]
- IC50: > 20 µM
- IC50 (read-out: pIC50 (converted)): > 20 µM

SMILES: CCCN[C@H]1CCc2nc(N)sc2C1 [PRAMIPEXOLE]
- IC50: > 20 µM
- IC50 (read-out: pIC50 (converted)): > 20 µM

SMILES: CC(O)C(=O)Nc1c(I)c(C(=O)NC(CO)CO)c(I)c(C(=O)NC(CO)CO)c1I (stereo not drawn)
- IC50: > 20 µM
- IC50 (read-out: pIC50 (converted)): > 20 µM

SMILES: CCN(c1ccccc1)c1cc(NC)[n+](C)c(C)n1
- IC50: > 20 µM
- IC50 (read-out: pIC50 (converted)): > 20 µM

SMILES: CCCC(=O)O[C@]1(C(=O)COC(C)=O)CC[C@H]2[C@@H]3C[C@H](F)C4=CC(=O)C=C[C@]4(C)[C@@]3(F)[C@@H](O)C[C@@]21C [DIFLUPREDNATE]
- IC50: > 20 µM
- IC50 (read-out: pIC50 (converted)): > 20 µM

SMILES: CCCCN1CCCCC1C(=O)Nc1c(C)cccc1C (stereo not drawn) [BUPIVACAINE]
- IC50: > 20 µM
- IC50 (read-out: pIC50 (converted)): > 20 µM

SMILES: CN(C)CCOC(c1ccccc1)c1ccccc1.Cn1c(=O)c2[nH]c(Cl)nc2n(C)c1=O [DIMENHYDRINATE]
- IC50: > 20 µM
- IC50 (read-out: pIC50 (converted)): > 20 µM

SMILES: O=C(c1ccc(Cl)cc1)n1cc(Cc2nnn[nH]2)c2ccccc21 [INTRAZOLE]
- IC50: > 20 µM
- IC50 (read-out: pIC50 (converted)): > 20 µM

SMILES: O=C(Nc1ccc(C(=O)O)c(O)c1)c1ccccc1 [BENZOYLPAS]
- IC50: > 20 µM
- IC50 (read-out: pIC50 (converted)): > 20 µM

SMILES: COc1ccc(-c2cc(=O)c3c(OC)cc(OCC(=O)O)cc3o2)cc1OC [RECOFLAVONE]
- IC50: > 20 µM
- IC50 (read-out: pIC50 (converted)): > 20 µM

SMILES: O=C1NC(=O)C(=O)C(=O)N1 [ALLOXAN]
- IC50: > 20 µM
- IC50 (read-out: pIC50 (converted)): > 20 µM

SMILES: COc1ccc(CCC(=O)c2c(O)cc(O[C@@H]3O[C@H](CO)[C@@H](O)[C@H](O)[C@H]3O[C@@H]3O[C@@H](C)[C@H](O)[C@@H](O)[C@H]3O)cc2O)cc1O [NEOHESPERIDIN DIHYDROCHALCONE]
- IC50: > 20 µM
- IC50 (read-out: pIC50 (converted)): > 20 µM

SMILES: CN(C)CCCOC1CC(C)(C)N(C)C(C)(C)C1 [PEMERID]
- IC50: > 20 µM
- IC50 (read-out: pIC50 (converted)): > 20 µM

SMILES: COc1ccc2cc([C@H](C)CO)ccc2c1 [NAPROXOL]
- IC50: > 20 µM
- IC50 (read-out: pIC50 (converted)): > 20 µM

SMILES: CS(=O)(=O)N1CCN(Cc2cc3nc(-c4cccc5[nH]ncc45)nc(N4CCOCC4)c3s2)CC1 [PICTILISIB]
- IC50: > 20 µM
- IC50 (read-out: pIC50 (converted)): > 20 µM

SMILES: COc1cc2c(Oc3ccc(NC(=O)C4(C(=O)Nc5ccc(F)cc5)CC4)cc3F)ccnc2cc1OCCCN1CCOCC1 [FORETINIB]
- IC50: > 20 µM
- IC50 (read-out: pIC50 (converted)): > 20 µM

SMILES: NC(CO)C(=O)NNCc1ccc(O)c(O)c1O (stereo not drawn) [BENSERAZIDE]
- IC50: > 20 µM
- IC50 (read-out: pIC50 (converted)): > 20 µM

SMILES: CCCC(C)(COC(N)=O)COC(=O)NC(C)C (stereo not drawn) [CARISOPRODOL]
- IC50: > 20 µM
- IC50 (read-out: pIC50 (converted)): > 20 µM

SMILES: COc1ccc2c(c1)[C@]13CCCC[C@@H]1[C@H](C2)N(C)CC3 [DEXTROMETHORPHAN]
- IC50: > 20 µM
- IC50 (read-out: pIC50 (converted)): > 20 µM

SMILES: CCCN(CCC)CCc1ccc(O)c(O)c1
- IC50: > 20 µM
- IC50 (read-out: pIC50 (converted)): > 20 µM

SMILES: COc1ccccc1N1CCN(CC(O)COc2cc(OC)c(OC)c(OC)c2)CC1 (stereo not drawn) [ENCIPRAZINE]
- IC50: > 20 µM
- IC50 (read-out: pIC50 (converted)): > 20 µM

SMILES: Nc1nc(N)nc(NC2CC2)n1 [CYROMAZINE]
- IC50: > 20 µM
- IC50 (read-out: pIC50 (converted)): > 20 µM

SMILES: COc1ccc2c3c1O[C@H]1[C@@H](O)CCC4[C@@H](C2)N(C)CC[C@@]341 (stereo partly drawn)
- IC50: > 20 µM
- IC50 (read-out: pIC50 (converted)): > 20 µM

SMILES: CNc1nccc(-c2cc3cc(C(=O)N[C@@H](CN(c4ccccc4)c4ncccn4)C(N)=O)ccc3[nH]2)n1
- IC50: > 20 µM
- IC50 (read-out: pIC50 (converted)): > 20 µM

SMILES: C[N+]1(C)CCC(OC(=O)C(O)(c2ccccc2)C2CCCC2)C1 (stereo not drawn) [GLYCOPYRRONIUM]
- IC50: > 20 µM
- IC50 (read-out: pIC50 (converted)): > 20 µM

SMILES: CC(C)CC(N(C)C)C1(c2ccc(Cl)cc2)CCC1 (stereo not drawn) [SIBUTRAMINE]
- IC50: > 20 µM
- IC50 (read-out: pIC50 (converted)): > 20 µM

SMILES: O=C(O)C[C@@H]1CCc2c1[nH]c1ccc(OCc3ccc(C4CCCC4)c(C(F)(F)F)c3)cc21
- IC50: > 20 µM
- IC50 (read-out: pIC50 (converted)): > 20 µM

SMILES: O=C(c1ccc(Oc2ccc(F)cc2)nc1)N1CCCN(C2CCC2)CC1 [JNJ-39220675]
- IC50: > 20 µM
- IC50 (read-out: pIC50 (converted)): > 20 µM

SMILES: NC(CO)(CO)CO [TROMETHAMINE]
- IC50: > 20 µM
- IC50 (read-out: pIC50 (converted)): > 20 µM

SMILES: Oc1cccc(O)c1O [PYROGALLOL]
- IC50: > 20 µM
- IC50 (read-out: pIC50 (converted)): > 20 µM

SMILES: CCCCCN(CCCCC)C(=O)C(CCC(=O)O)NC(=O)c1ccc(Cl)c(Cl)c1 (stereo not drawn) [LORGLUMIDE]
- IC50: > 20 µM
- IC50 (read-out: pIC50 (converted)): > 20 µM

SMILES: Cc1oc(=O)oc1CN1CCN(c2cc3c(cc2F)c(=O)c(C(=O)O)c2n3C(C)S2)CC1 (stereo not drawn) [PRULIFLOXACIN]
- IC50: > 20 µM
- IC50 (read-out: pIC50 (converted)): > 20 µM

SMILES: CC(C)(C)C(=O)Oc1ccc2c(c1)O[C@H](c1ccc(OCCN3CCCCC3)cc1)C1=C2COc2cc(OC(=O)C(C)(C)C)ccc21
- IC50: > 20 µM
- IC50 (read-out: pIC50 (converted)): > 20 µM

SMILES: CCN1CCCC1CNC(=O)c1cc(S(=O)(=O)CC)c(N)cc1OC (stereo not drawn) [AMISULPRIDE]
- IC50: > 20 µM
- IC50 (read-out: pIC50 (converted)): > 20 µM
